Measurements from US7109193B2, “Tricyclic diazepines tocolytic oxytocin receptor antagonists” (Wyeth, priority 2001, dated 2006).
Counter-ions that a name gives are not always drawn.

Target: T1, human vasopressin V1a receptor subtype (Homo sapiens, UniProt P37288)
T1 construct: host or cells: CHO cells (pZeoSV vector for the Thibonnier line)
Assay: Vasopressin binding in Chinese Hamster Ovary cell membranes expressing human vasopressin V1a subtype receptors
Conditions: CHO cell membranes, [3H]Manning ligand; for inhibition at 0.1 µM: 100 nM, values without parentheses; for IC50: values in parentheses
Outline: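 Membranes from CHO cells expressing human V1a receptor were incubated with [3H]Manning ligand (added as 20 μL of 8 nM) in pH 7.4 Tris buffer with MgCl2, BSA and protease inhibitors, 60 min at room temperature. Bound radioactivity was counted after filtration; values are percent inhibition at a stated concentration or IC50.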

T1 sequence (P37288 whole entry): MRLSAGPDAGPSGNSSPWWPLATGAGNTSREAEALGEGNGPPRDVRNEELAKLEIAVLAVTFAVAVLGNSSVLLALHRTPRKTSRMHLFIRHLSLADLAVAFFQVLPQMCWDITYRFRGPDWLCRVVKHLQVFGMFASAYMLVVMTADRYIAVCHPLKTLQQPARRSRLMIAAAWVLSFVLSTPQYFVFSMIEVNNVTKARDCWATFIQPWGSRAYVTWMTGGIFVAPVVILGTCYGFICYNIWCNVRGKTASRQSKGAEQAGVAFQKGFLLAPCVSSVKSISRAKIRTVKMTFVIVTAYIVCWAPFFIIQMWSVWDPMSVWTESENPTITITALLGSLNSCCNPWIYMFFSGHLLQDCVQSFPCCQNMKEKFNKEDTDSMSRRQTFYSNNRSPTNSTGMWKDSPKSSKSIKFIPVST

Row | Compound | inhibition at 0.1 µM [%] | IC50 [nM]
1 | Cc1ccccc1-c1ccc(C(=O)N2Cc3ccc(C(=O)N(C)CCCN(C)C)n3Cc3ccccc32)cc1C [Example 101, N-[3-(Dimethylamino)propyl]-10-[(2,2′-dimethyl[1,1′-biphenyl]-4-yl)carbonyl]-N-methyl-10,11-dihydro-5H-pyrrolo[2,1-c][1,4]benzodiazepine-3-carboxamide] | 75 | –
2 | COc1ccccc1-c1ccc(C(=O)N2Cc3ccc(C(=O)N4CCN(CCN5CCOCC5)CC4)n3Cc3ccccc32)cc1 [Example 207, {10-[(2′-Methoxy[1,1′-biphenyl]-4-yl)carbonyl]-10,11-dihydro-5H-pyrrolo[2,1-c][1,4]benzodiazepin-3-yl}{4-[2-(4-morpholinyl)ethyl]-1-piperazinyl}methanone] | – | 488
3 | COc1cc(-c2ccccc2C)c(Cl)cc1C(=O)N1Cc2ccc(C(=O)N(C)CCCN(C)C)n2Cc2ccccc21 [Example 98, 10-[(6-Chloro-3-methoxy-2′-methyl[1,1′-biphenyl]-4-yl)carbonyl]-N-[3-(dimethylamino)propyl]-N-methyl-10,11-dihydro-5H-pyrrolo[2,1-c][1,4]benzodiazepine-3-carboxamide] | – | 238
4 | COc1cc(-c2ccccc2C)c(Cl)cc1C(=O)N1Cc2ccc(C(=O)N3CCN(C)CC3)n2Cc2ccccc21 [Example 47, {10-[(6-Chloro-3-methoxy-2′-methyl[1,1′-biphenyl]-4-yl)carbonyl]-10,11-dihydro-5H-pyrrolo[2,1-c][1,4]benzodiazepin-3-yl}(4-methyl-1-piperazinyl)methanone] | – | 1000
5 | C=CCN1CCN(C(=O)c2ccc3n2Cc2ccccc2N(C(=O)c2ccc(-c4ccccc4C)c(C)c2)C3)CC1 [Example 220, (4-Allyl-1-piperazinyl){10-[(2,2′-dimethyl[1,1′-biphenyl]-4-yl)carbonyl]-10,11-dihydro-5H -pyrrolo[2,1-c][1,4]benzodiazepin-3-yl}methanone] | – | 387
6 | CN(C)CCCNC(=O)c1ccc2n1Cc1ccccc1N(C(=O)c1ccc(-c3cccc4ccccc34)cc1Cl)C2 [Example 83, 10-[2-Chloro-4-(1-naphthyl)benzoyl]-N-[3-(dimethylamino)propyl]-10,11-dihydro-5H-pyrrolo[2,1-c][1,4]benzodiazepine-3-carboxamide] | 8 | –
7 | COc1ccccc1-c1ccc(C(=O)N2Cc3ccc(C(=O)NCCCN(C)C)n3Cc3ccccc32)cc1OC [Example 81, 10-[(2,2′-Dimethoxy[1,1′-biphenyl]-4-yl)carbonyl]-N-[3-(dimethylamino)propyl]-10,11-dihydro-5H-pyrrolo[2,1-c][1,4]benzodiazepine-3-carboxamide] | 4 | –
8 | Cc1cc(C(=O)N2Cc3ccc(C(=O)NC(=N)N)n3Cc3ccccc32)ccc1-c1ccccc1C(F)(F)F [Example 8, N-[(10-{[2-methyl-2′-(trifluoromethyl)[1,1′-biphenyl]-4-yl]carbonyl}-10,11-dihydro-5H-pyrrolo[2,1-c][1,4]benzodiazepin-3-yl)carbonyl]guanidine] | – | 1370
9 | COc1cc(-c2ccccc2C)ccc1C(=O)N1Cc2ccc(C(=O)N(C)CCCN(C)C)n2Cc2ccccc21 [Example 11, N-Methyl-N-[3-(dimethylamino)propyl]-10-[(3-methoxy-2′-methyl[1,1′-biphenyl]-4-yl)carbonyl]-10,11-dihydro-5H-pyrrolo[2,1-c][1,4]benzodiazepine-3-carboxamide] | – | 70.4
10 | COc1cccc(-c2cc(OC)c(C(=O)N3Cc4ccc(C(=O)N(C)CCCN(C)C)n4Cc4ccccc43)cc2Cl)c1 [Example 99, 10-[(6-Chloro-3,3′-dimethoxy[1,1′-biphenyl]-4-yl)carbonyl]-N-[3-(dimethylamino)propyl]-N-methyl-10,11-dihydro-5H-pyrrolo[2,1-c][1,4]benzodiazepine-3-carboxamide] | – | 311
11 | Cc1cc(C(=O)N2Cc3ccc(C(=O)N4CCNCC4)n3Cc3ccccc32)ccc1-c1ccccc1C(F)(F)F [Example 7, 10,11-Dihydro-10-[[2-methyl-2′-trifluoromethyl-[1,1′-biphenyl]-4-yl]carbonyl]-3-(1-piperazinylcarbonyl)-5H-pyrrolo[2,1-c][1,4]benzodiazepine hydrochloride salt] | – | 2480
12 | COc1ccccc1-c1ccc(C(=O)N2Cc3ccc(C(=O)N4CCC(N5CCCCC5)CC4)n3Cc3ccccc32)cc1 [Example 111, {10-[(2′-Methoxy[1,1′-biphenyl]-4-yl)carbonyl]-10,11-dihydro-5H-pyrrolo[2,1-c][1,4]benzodiazepin-3-yl}[4-(1-piperidinyl)-1-piperidinyl]methanone] | – | 459
13 | COc1ccccc1-c1ccc(C(=O)N2Cc3ccc(C(=O)N(C)CCN(C)C)n3Cc3ccccc32)cc1C [Example 88, N-[2-(Dimethylamino)ethyl]-10-[(2′-methoxy-2-methyl[1,1′-biphenyl]-4-yl)carbonyl]-N-methyl-10,11-dihydro-5H-pyrrolo[2,1-c][1,4]benzodiazepine-3-carboxamide] | 44 | –
14 | COc1cccc(-c2ccc(C(=O)N3Cc4ccc(C(=O)N(C)CCN(C)C)n4Cc4ccccc43)cc2C)c1 [Example 89, N-[2-(Dimethylamino)ethyl]-10-[(3′-methoxy-2-methyl[1,1′-biphenyl]-4-yl)carbonyl]-N-methyl-10,11-dihydro-5H-pyrrolo[2,1-c][1,4]benzodiazepine-3-carboxamide] | 50 | –
15 | COc1ccccc1-c1ccc(C(=O)N2Cc3ccc(C(=O)N4CCN(CCN5CCOCC5)CC4)n3Cc3ccccc32)cc1C [Example 206, {10-[(2′-Methoxy-2-methyl[1,1′-biphenyl]-4-yl)carbonyl]-10,11-dihydro-5H-pyrrolo[2,1-c][1,4]benzodiazepin-3-yl}{4-[2-(4-morpholinyl)ethyl]-1-piperazinyl}methanone] | – | 317
16 | COc1cc(-c2ccccc2Cl)c(Cl)cc1C(=O)N1Cc2ccc(C(=O)N(C)C3CCN(C)CC3)n2Cc2ccccc21 [Example 43, 10-[(2′-Chloro-6-chloro-3-methoxy-[1,1′-biphenyl]-4-yl)carbonyl]-N-methyl-N-(1-methylpiperidin-4-yl)-10,11-dihydro-5H-pyrrolo[2,1-c][1,4]benzodiazepine-3-carboxamide] | – | 312
17 | COc1ccccc1-c1ccc(C(=O)N2Cc3ccc(C(=O)N4CCN(CCCN(C)C)CC4)n3Cc3ccccc32)cc1C [Example 245, {4-[3-(Dimethylamino)propyl]-1-piperazinyl}{10-[(2′-methoxy-2-methyl[1,1′-biphenyl]-4-yl)carbonyl]-10,11-dihydro-5H-pyrrolo[2,1-c][1,4]benzodiazepin-3-yl}methanone] | – | 933
18 | Cc1cc(C(=O)N2Cc3ccc(C(=O)N4CCN(C)CC4)n3Cc3ccccc32)ccc1-c1ccccc1C(F)(F)F [Example 2, (4-Methyl-piperazin-1-yl)-[10-(2-methyl-2′-trifluoromethyl-[1,1′-biphenyl]-4-yl)-carbonyl]-10,11-dihydro-5H-pyrrolo[2,1-c][1,4]benzodiazepin-3-yl-methanone] | – | 2720
19 | Cc1ccccc1-c1ccc(C(=O)N2Cc3ccc(C(=O)N(C)CCCN(C)C)n3Cc3ccccc32)cc1 [Example 104, N-[3-(Dimethylamino)propyl]-N-methyl-10-[(2′-methyl[1,1′-biphenyl]-4-yl)carbonyl]-10,11-dihydro-5H-pyrrolo[2,1-c][1,4]benzodiazepine-3-carboxamide] | 85 | –
20 | COc1cccc(-c2cc(OC)c(C(=O)N3Cc4ccc(C(=O)NCCCN(C)C)n4Cc4ccccc43)cc2Cl)c1 [Example 79, 10-[(6-Chloro-3,3′-dimethoxy[1,1′-biphenyl]-4-yl)carbonyl]-N-[3-(dimethylamino)propyl]-10,11-dihydro-5H-pyrrolo[2,1-c][1,4]benzodiazepine-3-carboxamide] | 0 | –
21 | COc1cccc(-c2ccc(C(=O)N3Cc4ccc(C(=O)NCCCN(C)C)n4Cc4ccccc43)cc2OC)c1 [Example 82, 10-[(2,3′-Dimethoxy[1,1′-biphenyl]-4-yl)carbonyl]-N-[3-(dimethylamino)propyl]-10,11-dihydro-5H-pyrrolo[2,1-c][1,4]benzodiazepine-3-carboxamide] | 37 | –
22 | COc1cc(C(=O)N2Cc3ccc(C(=O)N(C)CCCN(C)C)n3Cc3ccccc32)ccc1-c1ccccc1C [Example 105, N-[3-(Dimethylamino)propyl]-10-[(2-methoxy-2′-methyl[1,1′-biphenyl]-4-yl)carbonyl]-N-methyl-10,11-dihydro-5H-pyrrolo[2,1-c][1,4]benzodiazepine-3-carboxamide] | 74 | –
23 | Cc1ccccc1-c1ccc(C(=O)N2Cc3ccc(C(=O)N(C)CCN(C)C)n3Cc3ccccc32)cc1 [Example 91, N-[2-(Dimethylamino)ethyl]-N-methyl-10-[(2′-methyl[1,1′-biphenyl]-4-yl)carbonyl]-10,11-dihydro-5H-pyrrolo[2,1-c][1,4]benzodiazepine-3-carboxamide] | 90 | –
24 | COc1ccccc1-c1ccc(C(=O)N2Cc3ccc(C(=O)N4CCN(CCN(C)C)CC4)n3Cc3ccccc32)cc1C [Example 195, {4-[2-(Dimethylamino)ethyl]-1-piperazinyl}{10-[(2′-methoxy-2-methyl[1,1′-biphenyl]-4-yl)carbonyl]-10,11-dihydro-5H-pyrrolo[2,1-c][1,4]benzodiazepin-3-yl}methanone] | – | 367
25 | COc1cc(C(=O)N2Cc3ccc(C(=O)NCCCN(C)C)n3Cc3ccccc32)ccc1-c1cccc2ccccc12 [Example 80, N-[3-(Dimethylamino)propyl]-10-[3-methoxy-4-(1-naphthyl)benzoyl]-10,11-dihydro-5H-pyrrolo[2,1-c][1,4]benzodiazepine-3-carboxamide] | 16 | –
26 | COc1ccccc1-c1ccc(C(=O)N2Cc3ccc(C(=O)N(C)CCCN(C)C)n3Cc3ccccc32)cc1 [Example 103, N-[3-(Dimethylamino)propyl]-10-[(2′-methoxy[1,1′-biphenyl]-4-yl)carbonyl]-N-methyl-10,11-dihydro-5H-pyrrolo[2,1-c][1,4]benzodiazepine-3-carboxamide] | 43 | –
